Measured values reported in article PMC6406907, “A H2AX–CARP-1 Interaction Regulates Apoptosis Signaling Following DNA Damage” (Cancers, 2019).

Assays:
[1] = system: CARP-1 interaction with γH2AX; assay: Co-immunoprecipitation of myc-His-CARP-1 with γH2AX; type: cell-based, human; details: for interaction of wild-type CARP-1 with γH2AX: MDA-MB-468 cells expressing myc-His-tagged CARP-1 (WT), IP/WB; for interaction of CARP-1 (Δ600–650) with γH2AX: in-frame deletion of CARP-1 amino acids 600–650, IP/WB
Description: Logarithmically growing cells were either untreated or treated with different agents for various time periods. The cells were lysed to prepare protein extracts. IP was carried out by incubating approximately 1 mg of the protein lysate with appropriate antibodies. The immunoprecipitates were then analyzed by SDS-PAGE, followed by WB with respective, interacting protein. For Gst-pulldown, Gst-H2AX or various His-TAT-HA-tagged CARP-1 peptides were generated in Escherichia coli (E. coli) BL21 cells essentially as described by us previously. Briefly, the competent E. coli BL-21 (DE3) pLysS cells were transformed separately with various recombinant pGEX-4T-1 or pTAT-HA constructs. The transformed cells were then subjected to selection by combined presence of ampicillin and chloramphenicol; various isolates for each transformation were obtained and bacterial lysates were characterized for expression of fusion peptides. Cells from each isolate were grown in 4 mL of LB medium containing ampicillin only until the optical density (OD)600 reached 0.4–0.8. Expression of fusion peptides was induced over 2–4 h incubation periods after Isopropyl β-D-1-thiogalactopyranoside (IPTG) addition. The cells were harvested, and pellets were stored at −80 °C overnight. The cell pellets were then lysed in 100–400 μL of bacterial protein extraction reagent (BPER) buffer (Thermo Scientific, Waltham, MA, USA, Cat# 78243) containing 2 μL/mL of 10 units/μL DNAse I (Boehringer Mannheim, Fremont, CA, USA, Cat # 776–785), and supernatant checked for expression of respective fusion peptides by WB. Following confirmation of expression, 5–20 μL of lysate expressing Gst fusion protein was first incubated with 20 μL of precleared glutathione sepharose in a final volume of 100 μL at 4 °C for 2 h with constant rotation. The sepharose beads were spun at 800× g for 2 min, and the pellet was washed 2–4 times with 100–200 μL of RIPA buffer (20 mM Tris-HCl (pH 7.5), 150 mM NaCl, 1 mM Na2EDTA, 1 mM EGTA, 1% NP-40, 1% sodium deoxycholate, 2.5 mM sodium pyrophosphate, 1 mM β-glycerophosphate, 1 mM Na3VO4, 1 µg/mL leupeptin) with 0.5 M NaCl. The beads were spun again as above, and mixed with 5–20 μL of E. coli lysate expressing His-TAT-HA CARP-1 peptides. The reactions were incubated further at 4 °C for 2 h with constant rotation. The peptide-bound sepharose beads were pelleted and washed with 100–200 μL of RIPA buffer with 0.1 M NaCl for 2–4 washes. In some cases, additional washes with 0.05 M NaCl buffer were carried out. After the final wash, the sepharose–protein complexes were spun, and then re-suspended in SDS loading buffer for electrophoresis on 12–15% SDS PAGE, followed by WB with appropriate antibodies.
We next carried out mutagenesis-based studies to map the interacting epitopes of CARP-1 and H2AX proteins. […]

[2] = system: CARP-1, phospho-JNK1/2, phospho-H2AX; assay: Western blot of CARP-1, phospho-JNK1/2, γH2AX in HeLa; type: cell-based, human; details: 10 μM, WB
Description: Logarithmically growing cells were either untreated or treated with different agents for various time periods. The cells were lysed to prepare protein extracts. IP was carried out by incubating approximately 1 mg of the protein lysate with appropriate antibodies. The immunoprecipitates were then analyzed by SDS-PAGE, followed by WB with respective, interacting protein. For Gst-pulldown, Gst-H2AX or various His-TAT-HA-tagged CARP-1 peptides were generated in Escherichia coli (E. coli) BL21 cells essentially as described by us previously. Briefly, the competent E. coli BL-21 (DE3) pLysS cells were transformed separately with various recombinant pGEX-4T-1 or pTAT-HA constructs. The transformed cells were then subjected to selection by combined presence of ampicillin and chloramphenicol; various isolates for each transformation were obtained and bacterial lysates were characterized for expression of fusion peptides. Cells from each isolate were grown in 4 mL of LB medium containing ampicillin only until the optical density (OD)600 reached 0.4–0.8. […]
Here, we utilized human TNBC MDA-MB-468 and human cervical cancer HeLa cells to conduct an MTT-based dose-response analysis using Adriamycin and CFM compounds. […] The cell lysates from the control, untreated, and treated cells were analyzed by WB for expression of CARP-1, phospho-JNK1/2, phospho-H2AX, and poly ADP ribose polymerase (PARP) proteins. […]

## COc1cccc2c1C(=O)c1c(O)c3c(c(O)c1C2=O)C[C@@](O)(C(=O)CO)C[C@@H]3O[C@H]1C[C@H](N)[C@H](O)[C@H](C)O1 [Adriamycin, doxorubicin, reference compound]
[1]
  interaction of wild-type CARP-1 with γH2AX: robust interaction of wild-type CARP-1 with γH2AX
  interaction of CARP-1 (Δ600–650) with γH2AX: abrogated CARP-1 interaction with γH2AX
[2]
  expression of CARP-1, phospho-JNK1/2, phospho-H2AX: stimulated expression of CARP-1, phospho-JNK1/2, and phospho-H2AX in a time-dependent manner

## O=C1N(Cc2ccccc2Cl)c2ccccc2C12NN=C(c1cccc(Cl)c1)S2 (stereo not drawn) [CFM-4.16]
[1]
  interaction of wild-type CARP-1 with γH2AX: robust interaction of wild-type CARP-1 with γH2AX
  interaction of CARP-1 (Δ600–650) with γH2AX: abrogated CARP-1 interaction with γH2AX
[2]
  expression of CARP-1, phospho-JNK1/2, phospho-H2AX: stimulated expression of CARP-1, phospho-JNK1/2, and phospho-H2AX in a time-dependent manner
